In this test the test system is SH13 H7N9 virus. Also noted: species or system mice. Conditions: mouse, in vivo.

Regarding poly IC, the “protection from lethal SH13 H7N9 challenge” value was “did not provide any benefit over the vaccine alone”.

The values above are taken from patent US20220362153A1, “COMPOSITIONS AND METHODS FOR PULMONARY SURFACTANT-BIOMIMETIC NANOPARTICLES” (priority 2019, published 2022).
